Assay results taken from US20170296550A1, “ARYL SULTAM DERIVATIVES AS RORc MODULATORS” (Genentech, Inc., priority 2013, published 2017).

Molecular target: T1, RORc (Homo sapiens, UniProt P51449)
T1 construct: host or cells: E. coli
T1 sequence (P51449 269-508 limits assumed): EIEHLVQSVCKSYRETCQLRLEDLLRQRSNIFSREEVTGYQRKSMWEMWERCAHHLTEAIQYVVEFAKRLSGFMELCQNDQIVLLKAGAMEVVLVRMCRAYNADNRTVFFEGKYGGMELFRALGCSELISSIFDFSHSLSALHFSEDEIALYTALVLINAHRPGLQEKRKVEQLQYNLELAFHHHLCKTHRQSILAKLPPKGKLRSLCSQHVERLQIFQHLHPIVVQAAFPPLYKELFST
Test: In Vitro RORc Ligand Binding Assay (25-[3H]hydroxycholesterol radioligand, filter plate)
Settings: RORc ligand binding domain 0.6 ug/mL; 6 nM 25-[3H]hydroxycholesterol; 3 h at 25° C.
Protocol: Example 68 In Vitro RORc Ligand Binding Assay
This assay was used to determine a compound's potency in inhibiting activity of RORc by determining, Kiapp, IC50, or percent inhibition values.
On day of the assay, 100 uL of 0.05% CHAPS (in deionized H2O) was added to all wells of the GFB Unifilter plate and allowed soak for 1 h. A wash buffer of 50 mM HEPES (pH 7.4), 150 mM NaCl, and 5 mM MgCl2 was prepared to wash the filter plate. To prepare an assay buffer, BSA was added to the wash buffer to reach 0.01% and DTT was added to reach 1 mM.
For IC50 mode, 10 mM compound stocks were serially diluted in DMSO with DMSO to give 20× required final concentration in DMSO (15 uL compound+30 uL DMSO). The 20× compound stocks were diluted in DMSO with Assay Buffer 4-fold to reach 5× the final test concentration in 25% DMSO (10 uL compound+30 uL Assay Buffer). Solutions were mixed by aspiration several times with a pipette set on 50 uL volume. For the assay, 10 uL of 5× compound stock solutions in 25% DMSO were added to the assay plate in duplicate.
For two point screening, 10 mM stock compound solutions were diluted in DMSO to obtain 200 uM (20× the high test concentration) and then diluted 10-fold further to reach 20 uM (20× the low test concentration). The 20× stocks were diluted 4-fold with Assay Buffer (10 uL compound+30 uL Assay Buffer) to reach 5× the test concentrations (50 uM and 5 uM) and 10 uL were added to two assay plates for the duplicate wells. With each concentration tested on 2 plates, each set of 80 compounds used 4 assay plates (1 uM and 10 uM, with n=2).
25-hydroxycholesterol (1 uM) was used to determine the level of NSB signal is prepared in DMSO as for compounds above, then diluted in Assay Buffer to give a final concentration of 5 uM. For 25-hydroxycholesterol in 25% DMSO/75% Assay Buffer; 10 uL per well was used for NSB samples. Wells for Total Binding and No Receptor sample determination contained 10 uL of 25% DMSO/75% Assay Buffer per well.
Radioligand (25-[^3H]hydroxycholesterol) Preparation
25-[^3H]hydroxycholesterol was dilute in Assay Buffer to obtain 15 nM and vortex to mix. Add 20 uL to all wells to reach 6 nM final in the assay.
Stock receptor solution was diluted in assay buffer to obtain 1.5 ug/mL in Assay Buffer. 20 uL was added to all wells. For No R samples, 20 uL Assay Buffer was substituted for receptor solution.
Assay plates were 96-well polypropylene V-bottom plates. 10 uL of 5× compound in 25% DMSO/75% Assay Buffer was added to Test wells. 10 uL of 25% DMSO/75% Assay Buffer was added to Total Binding or No Receptor wells. 10 uL of 5 uM 25-hydroxycholesterol in 25% DMSO/75% Assay Buffer was added to NSB wells. 20 uL of 15 nM 25-[^3H]hydroxycholesterol prepared in Assay Buffer was added to all wells. 20 uL of 1.5 ug/mL RORc receptor was added to wells (or […] Assay Buffer to No R wells). Following addition to the wells, the plates were incubated 3 h at 25° C.
Using a Packard Filtermate Harvester, the filter plate were washed 4 times following transfer of the incubated samples. Plates were dry-filtered completely (2 h at 50° C. or overnight at room temperature). 50 uL Microscint 0 was added to all wells and read on Topcount protocol Inverted.
Final concentrations were as follows: 50 mM HEPES buffer (pH 7.4); 150 mM NaCl; 1 mM DTT; 5 mM MgCl2; 0.01% BSA; 5% DMSO; 0.6 ug/mL RORc receptor; 6 nM 25-[^3H]hydroxycholesterol. For NSB wells, 1 uM 25-hydroxycholesterol was also present.

Row | IC50 | Compound
1 | 69 nM | CCS(=O)(=O)c1ccc(-c2ccc(CN3[C@@H](C)CCC(c4ccccc4)S3(=O)=O)c(F)c2)cc1 (stereo partly drawn) [Example 59, (3S)-2-(4′-Ethanesulfonyl-3-fluoro-biphenyl-4-ylmethyl)-3-methyl-6-phenyl-[1,2]thiazinane 1,1-dioxide]
2 | 151 nM | Cc1noc(C)c1COc1ccc(CN2[C@@H](C)CCC(c3ccccc3)S2(=O)=O)cc1 (stereo partly drawn) [Example 60, (3S)-2-[4-(3,5-Dimethyl-isoxazol-4-ylmethoxy)-benzyl]-3-methyl-6-phenyl-[1,2]thiazinane 1,1-dioxide]
